Test results published in ChEMBL document CHEMBL3085716, “Hytramycins V and I, anti-Mycobacterium tuberculosis hexapeptides from a Streptomyces hygroscopicus strain” (J Nat Prod, 2013).
Values after ≈ are worked out from the molar mass of the structure shown.

Key:
Assay type in all cases: functional
[1] = test system: Mycobacterium tuberculosis; assay: Antimycobacterial activity against streptomycin-resistant Mycobacterium tuberculosis ATCC 35820 under normoxic condition after 7 days by MABA assay; settings: ATCC 35820, 168 h
[2] = test system: Mycobacterium tuberculosis; assay: Antimycobacterial activity against moxifloxacin-resistant Mycobacterium tuberculosis under normoxic condition after 7 days by MABA assay; settings: 168 h
[3] = test system: Mycobacterium tuberculosis; assay: Ratio of MIC for Mycobacterium tuberculosis harboring luxABCDE under hypoxic condition in presence of 4% bovine serum albumin to MIC for Mycobacterium tuberculosis harboring luxABCDE under hypoxic condition in absence of 4% bovine serum albumin by MABA assay
[4] = test system: Mycobacterium tuberculosis; assay: Antimycobacterial activity against cycloserine-resistant Mycobacterium tuberculosis ATCC 35826 under normoxic condition after 7 days by MABA assay; settings: ATCC 35826, 168 h
[5] = test system: Mycobacterium tuberculosis; assay: Antimycobacterial activity against Mycobacterium tuberculosis harboring luxABCDE under hypoxic condition after 10 days by MABA assay in presence of 10% fetal bovine serum; settings: 240 h
[6] = test system: Mycobacterium tuberculosis; assay: Ratio of MIC for Mycobacterium tuberculosis harboring luxABCDE under hypoxic condition in presence of 10% fetal bovine serum to MIC for Mycobacterium tuberculosis harboring luxABCDE under hypoxic condition in absence of 10% fetal bovine serum by MABA assay
[7] = test system: Mycobacterium tuberculosis; assay: Antimycobacterial activity against Mycobacterium tuberculosis harboring luxABCDE under hypoxic condition after 10 days by MABA assay; settings: for MIC90: Mycobacterium tuberculosis, 240 h
[8] = test system: Mycobacterium tuberculosis; assay: Antimycobacterial activity against Mycobacterium tuberculosis harboring luxABCDE under hypoxic condition after 10 days by MABA assay in presence of 4% bovine serum albumin; settings: 240 h
[9] = test system: Mycobacterium tuberculosis; assay: Antimycobacterial activity against isoniazid-resistant Mycobacterium tuberculosis ATCC 35822 under normoxic condition after 7 days by MABA assay; settings: ATCC 35822, 168 h
[10] = test system: Mycobacterium tuberculosis; assay: Antimycobacterial activity against kanamycin-resistant Mycobacterium tuberculosis ATCC 35827 under normoxic condition after 7 days by MABA assay; settings: ATCC 35827, 168 h
[11] = test system: Mycobacterium tuberculosis; assay: Antimycobacterial activity against capreomycin-resistant Mycobacterium tuberculosis under normoxic condition after 7 days by MABA assay; settings: 168 h
[12] = test system: Mycobacterium tuberculosis; assay: Antimycobacterial activity against rifampin-resistant Mycobacterium tuberculosis ATCC 35838 under normoxic condition after 7 days by MABA assay; settings: ATCC 35838, 168 h

CC(C)C[C@@H]1NC(=O)[C@H]2CCCNN2C(=O)[C@H](C)N(C)C(=O)[C@H]2CCCNN2C(=O)[C@@H]2CCCNN2C(=O)[C@@H](C(C)C)NC1=O
MIC90 [1]: 11.6 µg/mL (≈ 18.3 µM) | MIC90 [2]: 9 µg/mL (≈ 14.2 µM) | Ratio [3]: 10 | MIC90 [4]: 20.6 µg/mL (≈ 32.5 µM) | MIC90 [5]: 20.9 µg/mL | Ratio [6]: 10 | MBC90 [7]: 19.5 µg/mL (≈ 30.8 µM) | MIC90 [7]: 2.4 µg/mL (≈ 3.79 µM) | MIC90 [8]: 19.1 µg/mL | MIC90 [9]: 12.1 µg/mL (≈ 19.1 µM) | MIC90 [10]: 12.4 µg/mL (≈ 19.6 µM) | MIC90 [11]: 12.1 µg/mL (≈ 19.1 µM) | MIC90 [12]: 9.6 µg/mL (≈ 15.1 µM)

CC[C@H](C)[C@H]1NC(=O)[C@H](CC(C)C)NC(=O)[C@H]2CCCNN2C(=O)[C@H](C)N(C)C(=O)[C@H]2CCCNN2C(=O)[C@@H]2CCCNN2C1=O
MIC90 [1]: 4.7 µg/mL (≈ 7.26 µM) | MIC90 [2]: 4 µg/mL (≈ 6.17 µM) | Ratio [3]: 10 | MIC90 [4]: 7.4 µg/mL (≈ 11.4 µM) | MIC90 [5]: 9.9 µg/mL | Ratio [6]: 10 | MBC90 [7]: 10.5 µg/mL (≈ 16.2 µM) | MIC90 [7]: 1.5 µg/mL (≈ 2.32 µM) | MIC90 [8]: 10.8 µg/mL | MIC90 [9]: 4.7 µg/mL (≈ 7.26 µM) | MIC90 [10]: 4.9 µg/mL (≈ 7.56 µM) | MIC90 [11]: 4.8 µg/mL (≈ 7.41 µM) | MIC90 [12]: 4.7 µg/mL (≈ 7.26 µM)

NNC(=O)c1ccncc1 [ISONIAZID]
MIC90 [1]: 0.03 µg/mL (≈ 0.219 µM) | MIC90 [2]: 0.1 µg/mL (≈ 0.729 µM) | MIC90 [4]: 0.03 µg/mL (≈ 0.219 µM) | MIC90 [5]: > 140 µg/mL | MIC90 [7]: > 140 µg/mL | MIC90 [8]: > 140 µg/mL | MIC90 [9]: > 1.1 µg/mL | MIC90 [10]: 0.1 µg/mL (≈ 0.729 µM) | MIC90 [11]: 0.1 µg/mL (≈ 0.729 µM) | MIC90 [12]: 0.1 µg/mL (≈ 0.729 µM)

Cc1ncc([N+](=O)[O-])n1CCO [METRONIDAZOLE]
MIC90 [1]: > 87.6 µg/mL | MIC90 [2]: > 87.6 µg/mL | MIC90 [4]: > 87.6 µg/mL | MIC90 [5]: 5.3 µg/mL | MIC90 [7]: > 87.6 µg/mL | MIC90 [8]: 13.5 µg/mL | MIC90 [9]: > 87.6 µg/mL | MIC90 [10]: > 87.6 µg/mL | MIC90 [11]: > 87.6 µg/mL | MIC90 [12]: > 87.6 µg/mL

CO[C@H]1/C=C/O[C@@]2(C)Oc3c(C)c(O)c4c(O)c(c(/C=N/N5CCN(C)CC5)c(O)c4c3C2=O)NC(=O)/C(C)=C\C=C\[C@H](C)[C@H](O)[C@@H](C)[C@@H](O)[C@@H](C)[C@H](OC(C)=O)[C@@H]1C [RIFAMPIN]
MIC90 [1]: < 0.01 µg/mL | MIC90 [2]: 0.1 µg/mL (≈ 0.122 µM) | MIC90 [4]: < 0.01 µg/mL | MIC90 [5]: 0.1 µg/mL | MBC90 [7]: 0.5 µg/mL (≈ 0.608 µM) | MIC90 [7]: < 0.1 µg/mL | MIC90 [8]: 0.2 µg/mL | MIC90 [9]: 0.01 µg/mL (≈ 0.0122 µM) | MIC90 [10]: < 0.01 µg/mL | MIC90 [11]: 0.04 µg/mL (≈ 0.0486 µM) | MIC90 [12]: > 3.3 µg/mL

CN[C@@H]1[C@H](O[C@H]2[C@H](O[C@H]3[C@H](O)[C@@H](O)[C@H](N=C(N)N)[C@@H](O)[C@@H]3N=C(N)N)O[C@@H](C)[C@]2(O)C=O)O[C@@H](CO)[C@H](O)[C@H]1O [STREPTOMYCIN]
MIC90 [1]: > 9.3 µg/mL | MIC90 [2]: 0.5 µg/mL (≈ 0.86 µM) | MIC90 [4]: 0.4 µg/mL (≈ 0.688 µM) | MIC90 [5]: 0.6 µg/mL | MIC90 [7]: 0.6 µg/mL (≈ 1.03 µM) | MIC90 [8]: 0.4 µg/mL | MIC90 [9]: 0.1 µg/mL (≈ 0.172 µM) | MIC90 [10]: 1.1 µg/mL (≈ 1.89 µM) | MIC90 [11]: 1.1 µg/mL (≈ 1.89 µM) | MIC90 [12]: 0.1 µg/mL (≈ 0.172 µM)
